According to paper PMC11940309, “Endocrine-Disrupting Activities of Flavones on Steroid Receptors: Structural Requirements and Synthesis of Novel Flavone with Improved Estrogenic Activity” (Biomedicines, 2025):
Several values for one entry are separate records, joined by “and”; a condition that tells them apart may be missing. Equal entries are not always repeated. Where two headings read alike, the source gives them in different places.

How the values were obtained:
[1] = system: estrogen receptor (ER); experiment: ER-mediated luciferase reporter induction in T47D KBluc cells; format: cell-based, human; conditions: for % ER Induction: relative to 1nM estradiol
Method: Experiments testing the effect of flavonoids on estrogen receptor-mediated transcription employed T47D KBluc cells. These cells were maintained in RPMI medium with 10% FBS, penicillin (100 U/mL), and streptomycin (100 μg/mL). For reporter gene experiments, cells were detached as above and replated at 50% confluency in phenol red-free RPMI media with 10% charcoal-stripped FBS and antibiotics (day one). All subsequent steps used phenol red-free medium and trypsin. On day three, the medium was replaced with fresh medium. On day five, cells were washed with PBSE, detached, resuspended, diluted, and replated in the phenol red-free RPMI with charcoal-stripped serum (50,000 cells per well as above).
(§1) For all cell lines, cell harvesting and the luminescence assay for alkaline phosphatase and/or luciferase were performed as previously described in detail. Each condition was performed in quadruplicate. […] Percent inhibition is 100 minus the percent induction.

[2] = target: T1, glucocorticoid receptor (GR) (Rattus norvegicus, UniProt P06536); experiment: GR-mediated induction of transcription by dexamethasone in T47D (A1-2) cells (luciferase reporter and endogenous alkaline phosphatase); format: cell-based, human; conditions: T47D, dexamethasone 1.0 nM, read-out: % Inhibition of GR Induction
T1 construct: host or cells: T47D (A1-2)
T1 sequence (P06536 1-795): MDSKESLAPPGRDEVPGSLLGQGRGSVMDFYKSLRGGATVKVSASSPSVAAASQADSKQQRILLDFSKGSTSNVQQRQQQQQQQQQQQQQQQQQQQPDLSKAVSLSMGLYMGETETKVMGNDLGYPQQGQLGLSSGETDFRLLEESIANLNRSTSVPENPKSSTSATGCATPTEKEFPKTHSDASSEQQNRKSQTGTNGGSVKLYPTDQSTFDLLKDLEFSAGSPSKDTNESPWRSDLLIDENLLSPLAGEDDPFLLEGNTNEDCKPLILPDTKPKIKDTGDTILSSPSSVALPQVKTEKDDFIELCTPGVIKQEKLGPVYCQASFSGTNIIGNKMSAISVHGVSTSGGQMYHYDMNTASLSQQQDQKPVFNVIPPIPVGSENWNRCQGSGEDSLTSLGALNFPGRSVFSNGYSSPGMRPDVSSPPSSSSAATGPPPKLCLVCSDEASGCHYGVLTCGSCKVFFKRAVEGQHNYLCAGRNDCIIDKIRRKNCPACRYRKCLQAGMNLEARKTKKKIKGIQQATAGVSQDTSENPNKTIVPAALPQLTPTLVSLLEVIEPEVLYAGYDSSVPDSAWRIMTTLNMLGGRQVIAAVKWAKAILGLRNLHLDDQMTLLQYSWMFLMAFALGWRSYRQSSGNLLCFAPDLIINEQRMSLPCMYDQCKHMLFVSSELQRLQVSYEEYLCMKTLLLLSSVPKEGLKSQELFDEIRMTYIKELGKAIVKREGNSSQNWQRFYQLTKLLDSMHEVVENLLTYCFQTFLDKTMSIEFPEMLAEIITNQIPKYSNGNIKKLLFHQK
Excerpt: (§2) The engineered T47D breast cancer cell lines employed for the assessment of flavonoid activity on glucocorticoid receptor (GR) and progesterone receptor (PR) signaling permitted the facile quantitation transcription of both an endogenous gene and a stably integrated reporter gene. […] The T47D K5pLuc cell line responds to progestins via induction of a stably integrated cytokeratin 5-luciferase reporter gene. […] For assessment of the effect of the test compounds on androgen receptor (AR) signaling, we used the HeLa13 cell line engineered to stably express human AR and a PSA-luciferase reporter gene containing a 4× multimerized PSA upstream enhancer ARE1 linked to the E4 TATA box and luciferase gene.
For assessment of the effect of flavones on glucocorticoid receptors, T47D (A1-2) cells were maintained in Minimal Essential Medium, 10% Fetal Bovine Serum (FBS), 0.2 mg/mL G418, penicillin (100 U/mL), and streptomycin (100 μg/mL). For experiments, medium was removed, and cultures rinsed with Phosphate-Buffered Saline (PBS) + 1.0 mM EDTA (PBSE), detached with trypsin, pelleted, and resuspended in medium to a concentration of 500,000 cells/mL. Aliquots of cell suspension, 100 microliters/well, were transferred into a 96-well, white, flat-bottomed plate and allowed to attach for 24 h. The following day, each well was treated with a 50 microliter aliquot of a test compound diluted in medium. Controls received medium containing DMSO diluted in the same way. For hormone treatment, dexamethasone was diluted in medium and added as 50 microliter aliquots so that the final volume in each well was 200 microliters. The final concentration of dexamethasone was 1.0 nM. Controls received medium without hormone. Hormone treatment was for 20 h at which time cells were harvested for assay of alkaline phosphatase and luciferase.
as §1

[3] = target: T2, human AR (Homo sapiens, UniProt P10275); experiment: AR-mediated induction of PSA-luciferase reporter by R1881 in HeLa13 cells; format: cell-based; conditions: for inhibition at 1 µM / inhibition at 4 µM: read-out: % Inhibition of AR-Mediated Gene Induction
T2 construct: expressed in transfected cells; host or cells: HeLa13 (HeLa 13)
T2 sequence (P10275 1-920): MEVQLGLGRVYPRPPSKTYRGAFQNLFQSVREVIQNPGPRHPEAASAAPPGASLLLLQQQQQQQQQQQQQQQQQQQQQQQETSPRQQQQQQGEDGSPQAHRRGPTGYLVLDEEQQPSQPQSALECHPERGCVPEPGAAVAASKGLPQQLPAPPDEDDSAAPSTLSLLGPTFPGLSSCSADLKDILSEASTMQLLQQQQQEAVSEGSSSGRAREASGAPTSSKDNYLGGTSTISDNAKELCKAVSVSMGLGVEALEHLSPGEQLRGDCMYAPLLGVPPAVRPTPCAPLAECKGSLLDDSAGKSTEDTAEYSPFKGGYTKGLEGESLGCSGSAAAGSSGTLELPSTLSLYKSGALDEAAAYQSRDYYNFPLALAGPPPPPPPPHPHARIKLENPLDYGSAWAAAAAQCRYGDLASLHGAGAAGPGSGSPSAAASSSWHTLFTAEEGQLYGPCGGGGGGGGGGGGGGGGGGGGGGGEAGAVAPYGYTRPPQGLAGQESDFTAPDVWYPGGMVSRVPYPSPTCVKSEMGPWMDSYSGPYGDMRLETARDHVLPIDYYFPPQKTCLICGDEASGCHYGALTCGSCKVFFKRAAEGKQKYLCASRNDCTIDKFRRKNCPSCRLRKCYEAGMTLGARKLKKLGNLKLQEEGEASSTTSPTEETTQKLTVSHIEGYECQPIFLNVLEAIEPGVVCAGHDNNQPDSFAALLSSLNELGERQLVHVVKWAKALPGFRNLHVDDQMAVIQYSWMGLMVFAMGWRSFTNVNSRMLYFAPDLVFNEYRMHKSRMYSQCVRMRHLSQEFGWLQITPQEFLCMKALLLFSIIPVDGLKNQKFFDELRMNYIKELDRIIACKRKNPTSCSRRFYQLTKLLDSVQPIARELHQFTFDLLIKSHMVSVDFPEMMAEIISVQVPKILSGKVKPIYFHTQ
Excerpt: as §2
Experiments testing the effect of flavonoid on androgen receptor-mediated transcription employed HeLa 13 cells maintained in MEM medium supplemented with 10% FBS, 0.5 mg/mL G418, 0.05 mg/mL Hygromycin B, […], and streptomycin (100 μg/mL). For reporter gene experiments, cells were replated at a 1:5 dilution in MEM medium with 5% charcoal-stripped FBS and the antibiotics mentioned above. The medium was changed the next day. After 48 h, the cells were washed with PBSE, detached with phenol red-free trypsin, pelleted, resuspended and plated in 96 well plates as above. Hormone and flavonoid treatments were performed as described above with the HeLa 13 medium and charcoal-stripped FBS. When treated with hormone, the synthetic androgen, R1881, was used at 1.0 nM. Hormone treatment was for 20 h at which time cells were harvested for assay of luciferase.
as §1

[4] = target: T3, progesterone receptor (PR) (Homo sapiens, UniProt P06401); experiment: PR-mediated induction of transcription by R5020 in T47D K5pLuc cells (luciferase reporter and endogenous alkaline phosphatase); format: cell-based; conditions: T47D, R5020 1.0 nM
T3 sequence (P06401 679-933 limits assumed): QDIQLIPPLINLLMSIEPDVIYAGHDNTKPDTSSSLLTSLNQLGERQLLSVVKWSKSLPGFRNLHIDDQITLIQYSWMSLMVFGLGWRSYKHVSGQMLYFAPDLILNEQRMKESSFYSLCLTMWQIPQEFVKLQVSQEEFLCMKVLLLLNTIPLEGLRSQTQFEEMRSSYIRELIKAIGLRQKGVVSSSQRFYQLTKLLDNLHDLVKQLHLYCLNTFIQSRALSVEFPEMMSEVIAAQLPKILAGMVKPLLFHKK
Excerpt: as §2
Experiments testing the effect of flavonoids on progesterone receptor-mediated transcription employed T47D K5pluc cells. The protocol was the same as that for T47D (A1-2) cells except the medium was Dulbecco’s Modified Eagle’s Medium supplemented with 10% FBS, insulin (10 nM), puromycin 200 ng/mL, nonessential amino acids, penicillin (100 U/mL), and streptomycin (100 μg/mL). When treated with hormone, the synthetic progestin, R5020, was used at 1.0 nM. Hormone treatment was for 20 h at which time cells were harvested for assay of alkaline phosphatase and luciferase.
as §1

inhibition at 1 µM ([3]; 1 µM, R1881 1.0 nM) [%] | inhibition at 4 µM ([3]; 4 µM, R1881 1.0 nM) [%] | SMILES | % ER Induction ([1]; 1 µM) [%] | % ER Induction ([1]; 4 µM) [%] | other results
-4 | 34 | COc1cccc2oc(-c3ccc(O)cc3)cc(=O)c12 [5-methoxy,4′-hydroxyflavone] | −2 | 10 | –
-8 | 22 | O=C1CC(c2ccccc2)Oc2ccc(O)cc21 (stereo not shown) [6-hydroxyflavanone] | 15 | 111 | –
32 | 39 | COc1ccc(-c2cc(=O)c3cc(O)ccc3o2)cc1 [6-hydroxy,4′-methoxyflavone] | 63 | 131 | –

The next lines start with the compound.

SMILES | inhibition at 1 µM ([3]; 1 µM, R1881 1.0 nM) [%] | inhibition at 4 µM ([3]; 4 µM, R1881 1.0 nM) [%] | % ER Induction ([1]; 1 µM) [%] | % ER Induction ([1]; 4 µM) [%] | other results
O=c1c(F)c(-c2ccc(O)cc2)oc2ccc(O)cc12 [compound 14, 3-fluoro, 6,4′-dihydroxyflavone] | – | – | – | – | EC50 compared to that of genistein [1]: comparable; EC50 ([1]; read-out: EC50, estrogen agonist): ~30 nM and 30 to 100 nM
O=c1cc(-c2ccc(O)cc2)oc2cc(O)cc(O)c12 [5,7,4′-trihydroxyflavone] | – | – | – | – | inhibition at 4 µM ([2]; AP (alkaline phosphatase)): -19%; inhibition at 4 µM ([2]; LUC (luciferase)): 6%; inhibition at 8 µM ([2]; AP (alkaline phosphatase)): 49%; inhibition at 8 µM ([2]; LUC (luciferase)): 35%
O=c1c(O)c(-c2ccc(O)c(O)c2)oc2cc(O)cc(O)c12 [3,5,7,3′,4′-pentahydroxyflavone] | – | – | 3 | 12 | inhibition at 4 µM ([4]; AP (alkaline phosphatase)): 52%; inhibition at 4 µM ([4]; LUC (luciferase)): 47%; inhibition at 8 µM ([4]; AP (alkaline phosphatase)): 79%; inhibition at 8 µM ([4]; LUC (luciferase)): 78%
COc1ccc(-c2oc3ccc(OC)cc3c(=O)c2O)cc1 [3-hydroxy, 6,4′-dimethoxyflavone] | -17 | 41 | 2 | 3 | –
COc1ccc(-c2cc(=O)c3c(OC)cccc3o2)cc1 [5,4′-methoxyflavone] | – | – | 1 | 31 | % Inhibition of AR-Mediated Gene Induction ([3]; 1 µM, R1881 1.0 nM): 4%; % Inhibition of AR-Mediated Gene Induction ([3]; 4 µM, R1881 1.0 nM): 53%
O=c1c(O)c(-c2ccc(O)cc2)oc2ccccc12 [3,4′-dihydroxyflavone] | 3 | 27 | 13 | 125 | –
Cc1c(-c2ccc(O)cc2)oc2ccc(O)cc2c1=O [compound 8, 3-methyl 6,4′-dihydroxyflavone] | – | – | – | – | increase of EC50 relative to 6,4′-dihydroxyflavone [1]: ten-fold or more; reporter gene activity compared with an optimal dose of estradiol ([1]; 1.0 micromolar): super-inducer
O=c1c(O)c(-c2ccc(O)cc2)oc2cc(O)ccc12 [3,7,4′-trihydroxyflavone] | -6 | 39 | 86 | 114 | –
O=C1CC(c2ccc(O)cc2)Oc2ccccc21 (stereo not shown) [4′-hydroxyflavanone] | – | – | 12 | 109 | inhibition at 1 µM [3]: -8%; inhibition at 4 µM [3]: 0%
O=c1cc(-c2ccccc2)oc2cccc(O)c12 [5-hydroxyflavone] | – | – | 0 | 4 | inhibition at 4 µM ([4]; AP (alkaline phosphatase)): 26%; inhibition at 4 µM ([4]; LUC (luciferase)): -23%; inhibition at 8 µM ([4]; AP (alkaline phosphatase)): 61%; inhibition at 8 µM ([4]; LUC (luciferase)): 45%; inhibition at 4 µM ([2]; AP (alkaline phosphatase)): 38%; inhibition at 4 µM ([2]; LUC (luciferase)): -9%; inhibition at 8 µM ([2]; AP (alkaline phosphatase)): 12%; inhibition at 8 µM ([2]; LUC (luciferase)): -30%
O=c1c(O)c(-c2ccccc2)oc2ccc(O)cc12 [3,6-dihydroxyflavone] | 35 | 52 | 55 | 94 | –
C[C@]12CC[C@@H]3c4ccc(O)cc4CC[C@H]3[C@@H]1CC[C@@H]2O [17β-estradiol] | – | – | – | – | potency relative to the 6,4′-dihydroxyflavones ([1]; in the assays used here): over 1000 fold
